According to patent US20120094995A1, “2-AZA-BICYCLO[2.2.1]HEPTANE COMPOUNDS AND USES THEREOF” (ASTRAZENECA AB, priority 2009, published 2012):
pIC50: −log10 of the molar value.

biological target: T1, human GlyT1b (Homo sapiens, UniProt P48067); assay: [3H] Glycine Uptake Assay (SPA) in recombinant hGlyT1b-CHO cells; assay type: cell-based; conditions: Table 1
T1 construct: expressed in transfected cells
T1 sequence (P48067 1-652 isoform P48067-3): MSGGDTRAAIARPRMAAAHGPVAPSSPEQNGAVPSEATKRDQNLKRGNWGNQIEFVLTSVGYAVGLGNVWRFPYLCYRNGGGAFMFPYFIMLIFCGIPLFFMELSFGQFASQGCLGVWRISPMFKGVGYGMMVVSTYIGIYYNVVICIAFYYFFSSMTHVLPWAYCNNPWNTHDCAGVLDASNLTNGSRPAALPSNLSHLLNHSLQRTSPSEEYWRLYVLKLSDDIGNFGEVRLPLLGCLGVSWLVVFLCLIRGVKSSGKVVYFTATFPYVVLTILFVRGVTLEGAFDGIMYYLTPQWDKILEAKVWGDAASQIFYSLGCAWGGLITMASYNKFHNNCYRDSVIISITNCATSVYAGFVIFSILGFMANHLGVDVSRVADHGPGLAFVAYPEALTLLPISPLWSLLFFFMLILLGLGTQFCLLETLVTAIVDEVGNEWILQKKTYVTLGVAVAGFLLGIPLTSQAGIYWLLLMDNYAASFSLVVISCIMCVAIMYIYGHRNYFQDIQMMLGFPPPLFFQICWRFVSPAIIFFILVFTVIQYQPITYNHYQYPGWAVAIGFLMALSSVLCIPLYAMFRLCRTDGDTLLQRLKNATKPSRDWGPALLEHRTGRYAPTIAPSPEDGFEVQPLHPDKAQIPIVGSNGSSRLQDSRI
Experimental: A. [3H] Glycine Uptake Assay
Preparation of recombinant human GlyT1b-CHO cells (hGlyT1b-CHO). The human GlyT1b CDS (GC002087, NM_006934) was cloned downstream of a CMV promoter in a bicistronic expression vector containing a hygromycin B resistance gene. CHO-K1 cells (ATCC) were transfected with the recombinant vector containing GlyT1b using Lipofectamine 2000 (Invitrogen) and cultured in Ham's/F12 media supplemented with 10% fetal bovine serum, 2 mM L-glutamine at 37° C., 5% CO2, 90% humidity. Twenty-four hours after transfection, cells were diluted and switched to media containing 0.5 mg/ml hygromycin B. Antibiotic resistant cells were obtained after 21 days of culture in the presence of hygromycin B. Clonal stable cell lines were isolated by FACS single cell deposition into 96-well plates.
Cells used were Recombinant hGlyT1b/CHO. These cells were cultured in cell culture medium (Ham's/F12 (Modified) (Mediatech, 10-080-CM), containing 10% FBS, 2 mM L-glutamine (Invitrogen 25030-149) and 0.5 mg/mL hygromycin B (Invitrogen, 10687-010)) in 175 cm^2 flasks until near confluence before use in the assay.
Cell medium in a cell culture flask containing near confluent cells was removed and 5 mL of cell stripper was added to submerge all cells on the surface of the culture flask. Cell stripper was removed immediately and the flask incubated in a 37° C. incubator for ˜5 min. Cells were shaken loose and suspended in 5 mL of PBS. After splitting cells to initiate a new flask(s), the cells remaining were collected by centrifugation, counted, and resuspended in assay buffer to a density of ˜2 million/mL. The cell suspension was kept at room temperature before use. The assays buffer was 10 mM HEPES, pH 7.4, containing 150 mM NaCl, 5 mM KCl, 1.5 mM CaCl2, 1.5 mM MgCl2, 0.45 mg/mL L-alanine (added fresh), and 1.8 mg/mL D-glucose (added fresh).
WGA PTV beads were suspended in assay buffer (2 mg/ml) containing 60 nM [^3H]Glycine (PerkinElmer (NET-004, [2-^3H]Glycine, 53.3 Ci/mmol, 1 mCi/mL)) and 20 μM unlabeled glycine and the suspension was kept at room temperature before assay.
To the wells of an OptiPlate, 2 μl DMSO containing a test compound was spotted. This was followed by addition of 98 μl of cell suspension (˜1 million/ml final). After incubating cells with compound for ˜15 min, 100 μl of the SPA (200 μg/well final) and isotope mixture (30 nM isotope with 10 μM cold glycine, final) was added to initiate the glycine uptake. At 2 h, the plate was read on a TopCount to quantify SPA counts.

`CSc1ncccc1C(=O)NC(c1ccccc1)C12CCC(CC1)N2C` (single isomer, unassigned) [Example 2, (R*)—N-((7-methyl-7-azabicyclo[2.2.1]heptan-1-y)(phenyl)methyl)-2-(methylthio)nicotinamide] gave a pIC50 of 6.77.

same assay, conditions: Table 2, unit from table title

First: Cc1cccc(C)c1C(=O)N[C@H](c1ccccc1)C12CCC(CC1)N2Cc1ccccn1 [Example 49]
Second: Cc1cccc(C)c1C(=O)N[C@H](c1ccccc1)C12CCC(CC1)N2CCC(F)(F)F [Example 58]
The pIC50 of the first is 1.71 log units lower: 6.81 for the first, 8.52 for the second.

Compared with `Cc1cccc(C)c1C(=O)NC(c1cccc(F)c1)C12CCC(CC1)N2` (stereo not shown) [Example 35], `Cc1cccc(C)c1C(=O)NC(c1ccc(Br)cc1)C12CCC(CC1)N2` (stereo not shown) [Example 89] is 0.57 log units lower in pIC50: 7.74 for the first, 7.17 for the second. The first is the more potent here.

Going from `COCCCN1C2CCC1(C(NC(=O)c1cccnc1SC)c1ccccc1)CC2` (stereo not shown) [Example 55] to `Cc1ccc(F)cc1C(=O)NC(c1ccccc1)C12CCC(CC1)N2C` (single isomer, unassigned) [Example 64], the pIC50 rises from 6.51 to 6.90 (0.39 log units).
